Measured values from US5164388A, “Heterocyclic peptide renin inhibitors” (Abbott Laboratories, priority 1991, dated 1992).

What was measured:
[1] = Blood pressure in salt depleted monkeys following oral dosing; format: in vivo, cynomolgous monkeys; conditions: oral 3 mg/kg
Protocol: (§1) The ability of the compounds of the invention to decrease blood pressure and plasma renin activity in vivo can be determined using the following method.
(§2) Male cynomolgous monkeys housed under constant temperature and lighting conditions and weighing 3-5 kg were instrumented with chronic indwelling arterial and venous catheters. Following pretreatment by salt-depletion, the monkeys were dosed by nasogastric tube with 3 mg/kg of the compound of Example 152.

Plasma Renin Activity = assay: Plasma renin activity in salt depleted monkeys following oral dosing; format: in vivo, cynomolgous monkeys; conditions: oral 3 mg/kg
Protocol: as §1, §2

human renal renin = target: T1, human renal renin (Homo sapiens, UniProt P00797); assay: Inhibition of human renal renin in vitro (angiotensin I formed, radioimmunoassay); format: biochemical; conditions: human angiotensinogen substrate, 37 degrees C., pH 6.0
T1 construct: human renal renin, free from acid proteolytic activity; from tissue
T1 sequence (P00797 67-406): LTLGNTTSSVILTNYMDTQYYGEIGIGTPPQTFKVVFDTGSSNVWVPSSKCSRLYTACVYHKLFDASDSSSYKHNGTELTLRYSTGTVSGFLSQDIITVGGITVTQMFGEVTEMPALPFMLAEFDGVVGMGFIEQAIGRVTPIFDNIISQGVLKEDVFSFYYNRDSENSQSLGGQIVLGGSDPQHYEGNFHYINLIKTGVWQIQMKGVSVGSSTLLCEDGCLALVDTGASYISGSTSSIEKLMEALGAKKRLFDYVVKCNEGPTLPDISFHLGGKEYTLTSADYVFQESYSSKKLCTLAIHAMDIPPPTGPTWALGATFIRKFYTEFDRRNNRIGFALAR
Protocol: The novel compounds of the present invention are also useful for treating congestive heart failure. […] At the end of the incubation, the amount of angiotensin I formed is measured by radioimmunoassay and the molar concentration required to cause 50% inhibition, expressed as the IC50, is calculated.

[2] = Mean of three monkeys, time 0 min
[3] = Mean of three monkeys, time 5 min
[4] = Mean of three monkeys, time 15 min
[5] = Mean of three monkeys, time 30 min
[6] = Mean of three monkeys, time 60 min
[7] = Mean of three monkeys, time 90 min
[8] = Mean of three monkeys, time 120 min
[9] = Mean of three monkeys, time 180 min
[10] = Mean of three monkeys, time 360 min

IC50 (human renal renin): 0.55 nM
SMILES: CC1COC(C(O)C(CC2CCCCC2)NC(=O)C(Cc2cscn2)N2CCCC(Cc3ccccc3)(NS(=O)(=O)N3CCN(C)CC3)C2=O)C1 [Example 152, (2S1-((3S)-((N-methylpiperazinsulfonyl)amino-3-phenylmethyl-2-oxo-1-piperidinyl)-3-(4-thiazolyl)propionic acid amide of (2S,4S,1'R,2'S)-2-(2'-amino-3'-cyclohexyl-1'-hydroxypropyl)-4-methyltetrahydrofuran]
Blood Pressure (BP) [1, 2]: 86 mmHg
Blood Pressure (BP) [1, 3]: 85 mmHg
Blood Pressure (BP) [1, 4]: 79 mmHg
Blood Pressure (BP) [1, 5]: 74 mmHg
Blood Pressure (BP) [1, 6]: 73 mmHg
Blood Pressure (BP) [1, 7]: 76 mmHg
Blood Pressure (BP) [1, 8]: 77 mmHg
Blood Pressure (BP) [1, 9]: 79 mmHg
Blood Pressure (BP) [1, 10]: 83 mmHg
Blood Pressure (BP) ([1]; Monkey 1, time 0 min): 75 mmHg
Blood Pressure (BP) ([1]; Monkey 1, time 5 min): 75 mmHg
Blood Pressure (BP) ([1]; Monkey 1, time 15 min): 75 mmHg
Blood Pressure (BP) ([1]; Monkey 1, time 30 min): 71 mmHg
Blood Pressure (BP) ([1]; Monkey 1, time 60 min): 70 mmHg
Blood Pressure (BP) ([1]; Monkey 1, time 90 min): 74 mmHg
Blood Pressure (BP) ([1]; Monkey 1, time 120 min): 68 mmHg
Blood Pressure (BP) ([1]; Monkey 1, time 180 min): 72 mmHg
Blood Pressure (BP) ([1]; Monkey 1, time 360 min): 72 mmHg
Blood Pressure (BP) ([1]; Monkey 2, time 0 min): 105 mmHg
Blood Pressure (BP) ([1]; Monkey 2, time 5 min): 99 mmHg
Blood Pressure (BP) ([1]; Monkey 2, time 15 min): 92 mmHg
Blood Pressure (BP) ([1]; Monkey 2, time 30 min): 82 mmHg
Blood Pressure (BP) ([1]; Monkey 2, time 60 min): 85 mmHg
Blood Pressure (BP) ([1]; Monkey 2, time 90 min): 85 mmHg
Blood Pressure (BP) ([1]; Monkey 2, time 120 min): 80 mmHg
Blood Pressure (BP) ([1]; Monkey 2, time 180 min): 92 mmHg
Blood Pressure (BP) ([1]; Monkey 2, time 360 min): 93 mmHg
Blood Pressure (BP) ([1]; Monkey 3, time 0 min): 77 mmHg
Blood Pressure (BP) ([1]; Monkey 3, time 5 min): 82 mmHg
Blood Pressure (BP) ([1]; Monkey 3, time 15 min): 69 mmHg
Blood Pressure (BP) ([1]; Monkey 3, time 30 min): 69 mmHg
Blood Pressure (BP) ([1]; Monkey 3, time 60 min): 65 mmHg
Blood Pressure (BP) ([1]; Monkey 3, time 90 min): 70 mmHg
Blood Pressure (BP) ([1]; Monkey 3, time 120 min): 82 mmHg
Blood Pressure (BP) ([1]; Monkey 3, time 180 min): 72 mmHg
Blood Pressure (BP) ([1]; Monkey 3, time 360 min): 84 mmHg
Plasma Renin Activity (PRA) (Plasma Renin Activity; [2]): 21.7 ng/mL/h
Plasma Renin Activity (PRA) (Plasma Renin Activity; [3]): 0.8 ng/mL/h
Plasma Renin Activity (PRA) (Plasma Renin Activity; [4]): 0.2 ng/mL/h
Plasma Renin Activity (PRA) (Plasma Renin Activity; [5]): 0.0 ng/mL/h
Plasma Renin Activity (PRA) (Plasma Renin Activity; [6]): 0.0 ng/mL/h
Plasma Renin Activity (PRA) (Plasma Renin Activity; [7]): 0.0 ng/mL/h
Plasma Renin Activity (PRA) (Plasma Renin Activity; [8]): 0.1 ng/mL/h
Plasma Renin Activity (PRA) (Plasma Renin Activity; [9]): 0.1 ng/mL/h
Plasma Renin Activity (PRA) (Plasma Renin Activity; [10]): 0.5 ng/mL/h
Plasma Renin Activity (PRA) (Plasma Renin Activity; Monkey 1, time 0 min): 12.6 ng/mL/h
Plasma Renin Activity (PRA) (Plasma Renin Activity; Monkey 1, time 5 min): 2.2 ng/mL/h
Plasma Renin Activity (PRA) (Plasma Renin Activity; Monkey 1, time 15 min): 0.44 ng/mL/h
Plasma Renin Activity (PRA) (Plasma Renin Activity; Monkey 1, time 30 min): 0.0 ng/mL/h
Plasma Renin Activity (PRA) (Plasma Renin Activity; Monkey 1, time 60 min): 0.0 ng/mL/h
Plasma Renin Activity (PRA) (Plasma Renin Activity; Monkey 1, time 90 min): 0.1 ng/mL/h
Plasma Renin Activity (PRA) (Plasma Renin Activity; Monkey 1, time 120 min): 0.0 ng/mL/h
Plasma Renin Activity (PRA) (Plasma Renin Activity; Monkey 1, time 180 min): 0.1 ng/mL/h
Plasma Renin Activity (PRA) (Plasma Renin Activity; Monkey 1, time 360 min): 0.2 ng/mL/h
Plasma Renin Activity (PRA) (Plasma Renin Activity; Monkey 2, time 0 min): 34.2 ng/mL/h
Plasma Renin Activity (PRA) (Plasma Renin Activity; Monkey 2, time 5 min): 0.1 ng/mL/h
Plasma Renin Activity (PRA) (Plasma Renin Activity; Monkey 2, time 15 min): 0.0 ng/mL/h
Plasma Renin Activity (PRA) (Plasma Renin Activity; Monkey 2, time 30 min): 0.0 ng/mL/h
Plasma Renin Activity (PRA) (Plasma Renin Activity; Monkey 2, time 60 min): 0.0 ng/mL/h
Plasma Renin Activity (PRA) (Plasma Renin Activity; Monkey 2, time 90 min): 0.0 ng/mL/h
Plasma Renin Activity (PRA) (Plasma Renin Activity; Monkey 2, time 120 min): 0.3 ng/mL/h
Plasma Renin Activity (PRA) (Plasma Renin Activity; Monkey 2, time 180 min): 0.2 ng/mL/h
Plasma Renin Activity (PRA) (Plasma Renin Activity; Monkey 2, time 360 min): 0.7 ng/mL/h
Plasma Renin Activity (PRA) (Plasma Renin Activity; Monkey 3, time 0 min): 18.4 ng/mL/h
Plasma Renin Activity (PRA) (Plasma Renin Activity; Monkey 3, time 5 min): 0.1 ng/mL/h
Plasma Renin Activity (PRA) (Plasma Renin Activity; Monkey 3, time 15 min): 0.2 ng/mL/h
Plasma Renin Activity (PRA) (Plasma Renin Activity; Monkey 3, time 30 min): 0.0 ng/mL/h
Plasma Renin Activity (PRA) (Plasma Renin Activity; Monkey 3, time 60 min): 0.1 ng/mL/h
Plasma Renin Activity (PRA) (Plasma Renin Activity; Monkey 3, time 90 min): 0.0 ng/mL/h
Plasma Renin Activity (PRA) (Plasma Renin Activity; Monkey 3, time 120 min): 0.0 ng/mL/h
Plasma Renin Activity (PRA) (Plasma Renin Activity; Monkey 3, time 180 min): 0.1 ng/mL/h
Plasma Renin Activity (PRA) (Plasma Renin Activity; Monkey 3, time 360 min): 0.7 ng/mL/h
